Format in all cases: functional
Experiment [1] has as its system Mycobacterium tuberculosis. In words: Antimycobacterial activity against multidrug-resistant Mycobacterium tuberculosis 9449/2007 after 21 days by micromethod. As to conditions: 9449/2007, 504 h.
Experiment [2] deals with Mycobacterium tuberculosis. In words: Antimycobacterial activity against multidrug-resistant Mycobacterium tuberculosis 9449/2007 after 14 days by micromethod.
Experiment [3] deals with Mycobacterium tuberculosis. As to the kind of experiment: Antimycobacterial activity against multidrug-resistant Mycobacterium tuberculosis 8666/2010 after 14 days by micromethod.
Experiment [4] concerns Mycobacterium tuberculosis. As to the kind of experiment: Antimycobacterial activity against multidrug-resistant Mycobacterium tuberculosis Praha 131 after 14 days by micromethod.
Experiment [5] concerns Mycobacterium tuberculosis. As to the kind of experiment: Antimycobacterial activity against multidrug-resistant Mycobacterium tuberculosis Praha 4 after 14 days by micromethod.
In experiment [6] the test system is Mycobacterium tuberculosis. In words: Antimycobacterial activity against multidrug-resistant Mycobacterium tuberculosis Praha 1 after 21 days by micromethod. The conditions noted are these: Praha 1, 504 h.
For experiment [7], the system named is Mycobacterium tuberculosis. As to the kind of experiment: Antimycobacterial activity against multidrug-resistant Mycobacterium tuberculosis 8666/2010 after 21 days by micromethod. The conditions noted are these: 8666/2010, 504 h.
Experiment [8] concerns Mycobacterium tuberculosis. As to the kind of experiment: Antimycobacterial activity against multidrug-resistant Mycobacterium tuberculosis 234/2005 after 14 days by micromethod.
For experiment [9], the system named is Mycobacterium tuberculosis. As to the kind of experiment: Antimycobacterial activity against multidrug-resistant Mycobacterium tuberculosis 7357/1998 after 21 days by micromethod. As to conditions: 7357/1998, 504 h.
Experiment [10] concerns Mycobacterium tuberculosis. As to the kind of experiment: Antimycobacterial activity against multidrug-resistant Mycobacterium tuberculosis 7357/1998 after 14 days by micromethod.
For experiment [11], the system named is Mycobacterium tuberculosis. In words: Antimycobacterial activity against multidrug-resistant Mycobacterium tuberculosis Praha 131 after 21 days by micromethod. As to conditions: Praha 131, 504 h.
The test system of experiment [12] is Mycobacterium tuberculosis. In words: Antimycobacterial activity against multidrug-resistant Mycobacterium tuberculosis Praha 4 after 21 days by micromethod. As to conditions: Praha 4, 504 h.
Experiment [13] deals with Mycobacterium tuberculosis. In words: Antimycobacterial activity against multidrug-resistant Mycobacterium tuberculosis Praha 1 after 14 days by micromethod.
The subject of experiment [14] is Mycobacterium tuberculosis. As to the kind of experiment: Antimycobacterial activity against multidrug-resistant Mycobacterium tuberculosis 234/2005 after 21 days by micromethod. The conditions noted are these: 234/2005, 504 h.

≈ marks a conversion by molar mass, not a printed value.

In the case of `O=[N+]([O-])c1cc(-c2nnc(SCc3cccc(Cl)c3)o2)cc([N+](=O)[O-])c1`, the MIC in [1] turned out to be 0.06 µM (≈ 0.0236 µg/mL); in [2] (9449/2007, 336 h), 0.03 µM (≈ 0.0118 µg/mL); in [3] (8666/2010, 336 h) it was 0.03 µM (≈ 0.0118 µg/mL); in experiment [4] (Praha 131, 336 h) it was 0.03 µM (≈ 0.0118 µg/mL); in experiment [5] (Praha 4, 336 h) it was 0.03 µM (≈ 0.0118 µg/mL); in [6], 0.06 µM (≈ 0.0236 µg/mL). Besides, the MIC in experiment [7] came out at 0.06 µM (≈ 0.0236 µg/mL); in experiment [8] (234/2005, 336 h), 0.03 µM (≈ 0.0118 µg/mL); in experiment [9], 0.06 µM (≈ 0.0236 µg/mL); in [10] (7357/1998, 336 h) it was 0.03 µM (≈ 0.0118 µg/mL); in experiment [11], 0.06 µM (≈ 0.0236 µg/mL); in experiment [12] it was 0.06 µM (≈ 0.0236 µg/mL). For the same molecule, the MIC in experiment [13] (Praha 1, 336 h) came to 0.03 µM (≈ 0.0118 µg/mL); in experiment [14], 0.06 µM (≈ 0.0236 µg/mL).

With `CC(C)/N=c1\cc2n(-c3ccc(Cl)cc3)c3ccccc3nc-2cc1Nc1ccc(Cl)cc1` [CLOFAZIMINE], the MIC was 0.125 µM (≈ 0.0592 µg/mL) in experiment [2] (9449/2007, 336 h); 2 µM (≈ 0.947 µg/mL) in experiment [3] (8666/2010, 336 h); 0.25 µM (≈ 0.118 µg/mL) in experiment [4] (Praha 131, 336 h); 0.5 µM (≈ 0.237 µg/mL) in experiment [5] (Praha 4, 336 h); 0.125 µM (≈ 0.0592 µg/mL) in [8] (234/2005, 336 h); 0.125 µM (≈ 0.0592 µg/mL) in [10] (7357/1998, 336 h). Besides, the MIC in experiment [13] (Praha 1, 336 h) turned out to be 0.5 µM (≈ 0.237 µg/mL).

With `CN[C@@H]1[C@H](O[C@H]2[C@H](O[C@H]3[C@H](O)[C@@H](O)[C@H](N=C(N)N)[C@@H](O)[C@@H]3N=C(N)N)O[C@@H](C)[C@]2(O)C=O)O[C@@H](CO)[C@H](O)[C@H]1O` [STREPTOMYCIN], the MIC was more than 32 µM in experiment [2] (9449/2007, 336 h); more than 32 µM in [3] (8666/2010, 336 h); more than 32 µM in experiment [4] (Praha 131, 336 h); more than 32 µM in experiment [5] (Praha 4, 336 h); 32 µM (≈ 18.6 µg/mL) in [8] (234/2005, 336 h); more than 32 µM in experiment [10] (7357/1998, 336 h). Inhibition of growth in experiment [13] (Praha 1, 336 h) (MIC) required 16 µM (≈ 9.31 µg/mL).

For `NNC(=O)c1ccncc1` [ISONIAZID], the MIC in experiment [2] (9449/2007, 336 h) stood at 64 µM (≈ 8.78 µg/mL); in experiment [3] (8666/2010, 336 h), 32 µM (≈ 4.39 µg/mL); in experiment [4] (Praha 131, 336 h), 16 µM (≈ 2.19 µg/mL); in [5] (Praha 4, 336 h), 16 µM (≈ 2.19 µg/mL); in experiment [8] (234/2005, 336 h), 16 µM (≈ 2.19 µg/mL); in experiment [10] (7357/1998, 336 h), 16 µM (≈ 2.19 µg/mL). In experiment [13] (Praha 1, 336 h), this molecule returned an MIC of 16 µM (≈ 2.19 µg/mL).

In the case of GENTAMICIN, the MIC in experiment [2] was 1 µM; in experiment [3] it was 2 µM; in experiment [4], more than 8 µM; in [5] it was 0.5 µM; in experiment [8] it was 0.25 µM; in experiment [10], 1 µM. In experiment [13], this molecule showed an MIC of 1 µM.

Regarding `CC1COc2c(N3CCN(C)CC3)c(F)cc3c(=O)c(C(=O)O)cn1c23` (stereo unspecified) [OFLOXACIN], the MIC in experiment [2] (9449/2007, 336 h) is 2 µM (≈ 0.723 µg/mL); in experiment [3] (8666/2010, 336 h), 8 µM (≈ 2.89 µg/mL); in [4] (Praha 131, 336 h), 16 µM (≈ 5.78 µg/mL); in [5] (Praha 4, 336 h), more than 16 µM; in experiment [8] (234/2005, 336 h), 0.5 µM (≈ 0.181 µg/mL); in experiment [10] (7357/1998, 336 h), 8 µM (≈ 2.89 µg/mL). Moreover, in experiment [13] (Praha 1, 336 h), inhibition of growth (MIC) required 1 µM (≈ 0.361 µg/mL).

As to `O=[N+]([O-])c1cc(-c2nnc(SCc3ccc(Br)cc3)o2)cc([N+](=O)[O-])c1`, the MIC in [1] was determined as 0.06 µM (≈ 0.0262 µg/mL); in [2] (9449/2007, 336 h) it was 0.03 µM (≈ 0.0131 µg/mL); in experiment [3] (8666/2010, 336 h), 0.03 µM (≈ 0.0131 µg/mL); in experiment [4] (Praha 131, 336 h), 0.03 µM (≈ 0.0131 µg/mL); in experiment [5] (Praha 4, 336 h), 0.03 µM (≈ 0.0131 µg/mL); in experiment [6] it was 0.06 µM (≈ 0.0262 µg/mL). Besides, the MIC in experiment [7] was 0.06 µM (≈ 0.0262 µg/mL); in experiment [8] (234/2005, 336 h), 0.03 µM (≈ 0.0131 µg/mL); in experiment [9], 0.06 µM (≈ 0.0262 µg/mL); in experiment [10] (7357/1998, 336 h), 0.03 µM (≈ 0.0131 µg/mL); in experiment [11], 0.06 µM (≈ 0.0262 µg/mL); in [12] it was 0.06 µM (≈ 0.0262 µg/mL). Besides, the MIC in [13] (Praha 1, 336 h) was 0.03 µM (≈ 0.0131 µg/mL); in experiment [14], 0.06 µM (≈ 0.0262 µg/mL).

For the molecule `COc1ccc(CSc2nnc(-c3cc([N+](=O)[O-])cc([N+](=O)[O-])c3)o2)cc1`, the MIC in [1] was found to be 0.06 µM (≈ 0.0233 µg/mL); in experiment [2] (9449/2007, 336 h) it was 0.03 µM (≈ 0.0117 µg/mL); in experiment [3] (8666/2010, 336 h), 0.03 µM (≈ 0.0117 µg/mL); in experiment [4] (Praha 131, 336 h) it was 0.03 µM (≈ 0.0117 µg/mL); in [5] (Praha 4, 336 h) it was 0.03 µM (≈ 0.0117 µg/mL); in [6] it was 0.06 µM (≈ 0.0233 µg/mL). The MIC is 0.06 µM (≈ 0.0233 µg/mL) in experiment [7]; 0.03 µM (≈ 0.0117 µg/mL) in experiment [8] (234/2005, 336 h); 0.06 µM (≈ 0.0233 µg/mL) in experiment [9]; 0.03 µM (≈ 0.0117 µg/mL) in experiment [10] (7357/1998, 336 h); 0.06 µM (≈ 0.0233 µg/mL) in experiment [11]; 0.06 µM (≈ 0.0233 µg/mL) in experiment [12]. The MIC in experiment [13] (Praha 1, 336 h) amounted to 0.03 µM (≈ 0.0117 µg/mL); in experiment [14], 0.06 µM (≈ 0.0233 µg/mL).

For `O=[N+]([O-])c1cc(-c2nnc(SCc3ccccc3Cl)o2)cc([N+](=O)[O-])c1`, the MIC in experiment [1] is 0.125 µM (≈ 0.0491 µg/mL); in [2] (9449/2007, 336 h) it was 0.06 µM (≈ 0.0236 µg/mL); in experiment [3] (8666/2010, 336 h) it was 0.06 µM (≈ 0.0236 µg/mL); in experiment [4] (Praha 131, 336 h), 0.06 µM (≈ 0.0236 µg/mL); in experiment [5] (Praha 4, 336 h), 0.03 µM (≈ 0.0118 µg/mL); in experiment [6], 0.125 µM (≈ 0.0491 µg/mL). For the same molecule, the MIC amounted to 0.125 µM (≈ 0.0491 µg/mL) in experiment [7]; 0.06 µM (≈ 0.0236 µg/mL) in experiment [8] (234/2005, 336 h); 0.125 µM (≈ 0.0491 µg/mL) in experiment [9]; 0.06 µM (≈ 0.0236 µg/mL) in experiment [10] (7357/1998, 336 h); 0.125 µM (≈ 0.0491 µg/mL) in experiment [11]; 0.06 µM (≈ 0.0236 µg/mL) in experiment [12]. Besides, the MIC turned out to be 0.06 µM (≈ 0.0236 µg/mL) in experiment [13] (Praha 1, 336 h) and 0.125 µM (≈ 0.0491 µg/mL) in experiment [14].

In general, MIC refers to the lowest concentration found to suppress growth.
